What was measured:
[1] = excess molar enthalpy (molar enthalpy of mixing); xn = mol fraction of the nth substance listed; details: 298.15 K, 101 kPa, Liquid, Calvet calorimetry
[2] = xn = mol fraction of the nth substance listed; details: 298.15 K, 101 kPa, Liquid

CCCOC=O [propyl methanoate] + ClCCCCCCCl
Details | excess molar enthalpy [kcal/mol] | mass density [kg/m3]
[1], x1 = 0.083 | 0.0159 | –
[1], x1 = 0.1781 | 0.0287 | –
[1], x1 = 0.2715 | 0.0378 | –
[1], x1 = 0.3516 | 0.0422 | –
[1], x1 = 0.4261 | 0.0428 | –
[1], x1 = 0.5 | 0.0403 | –
[1], x1 = 0.5567 | 0.0351 | –
[1], x1 = 0.6558 | 0.0259 | –
[1], x1 = 0.7057 | 0.0203 | –
[1], x1 = 0.7584 | 0.015 | –
[1], x1 = 0.815 | 0.00994 | –
[1], x1 = 0.8628 | 0.00602 | –
[1], x1 = 0.91 | 0.00292 | –
[1], x1 = 0.9591 | 0.00213 | –
[2], x1 = 0.0918 | – | 1053.78
[2], x1 = 0.1702 | – | 1044.88
[2], x1 = 0.2469 | – | 1035.63
[2], x1 = 0.3218 | – | 1026.16
[2], x1 = 0.3877 | – | 1017.4
[2], x1 = 0.4551 | – | 1008
[2], x1 = 0.5167 | – | 998.95
[2], x1 = 0.5747 | – | 990.06
[2], x1 = 0.6303 | – | 981.16
[2], x1 = 0.6844 | – | 972.09
[2], x1 = 0.7354 | – | 963.2
[2], x1 = 0.7849 | – | 954.19
[2], x1 = 0.8768 | – | 936.4
[2], x1 = 0.9196 | – | 927.69
[2], x1 = 0.9603 | – | 919.06

CCCOC=O [propyl methanoate] + ClCCCCCl
Details | excess molar enthalpy [kcal/mol] | mass density [kg/m3]
[1], x1 = 0.0711 | 0.00681 | –
[1], x1 = 0.1446 | 0.00982 | –
[1], x1 = 0.2182 | 0.0105 | –
[1], x1 = 0.2908 | 0.00652 | –
[1], x1 = 0.3554 | 0.00213 | –
[1], x1 = 0.4191 | -0.00306 | –
[1], x1 = 0.4755 | -0.007 | –
[1], x1 = 0.5267 | -0.0106 | –
[1], x1 = 0.5668 | -0.0133 | –
[1], x1 = 0.6196 | -0.0168 | –
[1], x1 = 0.681 | -0.0186 | –
[1], x1 = 0.7427 | -0.0172 | –
[1], x1 = 0.8085 | -0.0143 | –
[1], x1 = 0.875 | -0.00939 | –
[1], x1 = 0.939 | -0.00533 | –
[2], x1 = 0.0695 | – | 1119.11
[2], x1 = 0.1347 | – | 1106.03
[2], x1 = 0.1987 | – | 1092.92
[2], x1 = 0.2624 | – | 1079.78
[2], x1 = 0.3279 | – | 1066.03
[2], x1 = 0.3884 | – | 1053.07
[2], x1 = 0.4509 | – | 1039.59
[2], x1 = 0.5061 | – | 1027.51
[2], x1 = 0.5671 | – | 1013.93
[2], x1 = 0.6204 | – | 1001.93
[2], x1 = 0.6808 | – | 988.13
[2], x1 = 0.7363 | – | 975.18
[2], x1 = 0.7901 | – | 962.5
[2], x1 = 0.8426 | – | 950.01
[2], x1 = 0.8965 | – | 936.97
[2], x1 = 0.9466 | – | 924.57

CCCOC=O [propyl methanoate] + ClCCCCl
Details | excess molar enthalpy [kcal/mol] | mass density [kg/m3]
[1], x1 = 0.0618 | -0.000717 | –
[1], x1 = 0.1342 | -0.00406 | –
[1], x1 = 0.2092 | -0.00951 | –
[1], x1 = 0.2838 | -0.0162 | –
[1], x1 = 0.3515 | -0.0231 | –
[1], x1 = 0.4148 | -0.0297 | –
[1], x1 = 0.4714 | -0.0358 | –
[1], x1 = 0.503 | -0.0397 | –
[1], x1 = 0.5539 | -0.0461 | –
[1], x1 = 0.6084 | -0.0502 | –
[1], x1 = 0.6696 | -0.0491 | –
[1], x1 = 0.7356 | -0.0441 | –
[1], x1 = 0.8024 | -0.0365 | –
[1], x1 = 0.8727 | -0.0258 | –
[1], x1 = 0.9394 | -0.0134 | –
[2], x1 = 0.0612 | – | 1161.75
[2], x1 = 0.1204 | – | 1145.46
[2], x1 = 0.1775 | – | 1129.76
[2], x1 = 0.2355 | – | 1113.91
[2], x1 = 0.2944 | – | 1097.92
[2], x1 = 0.3527 | – | 1082.1
[2], x1 = 0.4109 | – | 1066.46
[2], x1 = 0.4695 | – | 1050.7
[2], x1 = 0.5286 | – | 1034.93
[2], x1 = 0.5863 | – | 1019.65
[2], x1 = 0.6459 | – | 1003.85
[2], x1 = 0.7044 | – | 988.35
[2], x1 = 0.763 | – | 972.97
[2], x1 = 0.8214 | – | 957.74
[2], x1 = 0.8796 | – | 942.43
[2], x1 = 0.9386 | – | 927.1

CCCOC=O [propyl methanoate] + ClCCCl
Details | excess molar enthalpy [kcal/mol] | mass density [kg/m3]
[1], x1 = 0.0489 | -0.00894 | –
[1], x1 = 0.1034 | -0.0201 | –
[1], x1 = 0.1594 | -0.0337 | –
[1], x1 = 0.2211 | -0.0473 | –
[1], x1 = 0.28 | -0.0608 | –
[1], x1 = 0.3363 | -0.0734 | –
[1], x1 = 0.3886 | -0.0843 | –
[1], x1 = 0.4382 | -0.09338 | –
[1], x1 = 0.483 | -0.1003 | –
[1], x1 = 0.5155 | -0.104 | –
[1], x1 = 0.5716 | -0.1046 | –
[1], x1 = 0.6361 | -0.1004 | –
[1], x1 = 0.7083 | -0.08982 | –
[1], x1 = 0.7725 | -0.0749 | –
[1], x1 = 0.8488 | -0.0545 | –
[1], x1 = 0.9302 | -0.0292 | –
[2], x1 = 0.0538 | – | 1223.09
[2], x1 = 0.1017 | – | 1203.75
[2], x1 = 0.1515 | – | 1184.04
[2], x1 = 0.2043 | – | 1163.71
[2], x1 = 0.2575 | – | 1143.76
[2], x1 = 0.3685 | – | 1103.98
[2], x1 = 0.4248 | – | 1084.54
[2], x1 = 0.4826 | – | 1065.09
[2], x1 = 0.5426 | – | 1045.46
[2], x1 = 0.6034 | – | 1026.11
[2], x1 = 0.6652 | – | 1006.9
[2], x1 = 0.7294 | – | 987.38
[2], x1 = 0.794 | – | 968.29
[2], x1 = 0.8599 | – | 949.22
[2], x1 = 0.9286 | – | 929.85

Reference: the NIST ThermoML archive (doi:10.1016/j.jct.2006.10.008)
